Laboratory results: patent publication US20050020631A1, “3-Substituted benzofurans as therapeutic agents” (priority 2003, published 2005)

Molecular target: T1, p101/p110γ protein (PI3Kγ) (Homo sapiens, UniProt P48736)
T1 construct: HA; made in house; host or cells: Spodoptera frugiperda (Sf9) cells, baculovirus coinfection
Assay: PI3Kγ In Vitro Kinase Assay
Type: biochemical
Settings: purified recombinant p101/p110γ with G protein β1/γ2 subunits; 20 μM ATP, [γ-32P-ATP]; 25 μM PIP2 lipid micelles; 20 minutes at room temperature
Procedure: Spodtera frugiperda cells, grown in ESF921 media, were coinfected with baculovirus expressing a glu-tagged p101 and baculovirus expressing an HA-tagged p110γ, at a 3:1 ratio of p101 baculovirus to p110γ baculovirus. Sf9 cells were grown to 1×10^7 total cells/mL in 10L bioreactors and harvested 48-72 hours post infection. Samples of infected cells were then tested for expression of p101/p110γ PI3 kinase by immunoprecipitation and Western Blot analysis methods (see below). To purify PI3Kγ, 4 volumes of room temperature hypotonic lysis buffer (1 mM MgCl2, 1 mM DTT, 5 mM EGTA, 1 mM Pefabloc, 0.5 μM aprotinin, 5 μM leupeptin, 2 μM pepstatin, 5 μM E64, pH 8) per gram of cell paste, was poured onto frozen cell pellets with stirring, then lysed in a nitrogen “bomb” at 400 psi (599HC […], Parr Instrument Co, Moline, Ill.). NaCl was added to 150 mM, and sodium cholate was added to 1% and mixed for another 45 minutes. The lysates were clarified by centrifugation for 25 minutes at 14,000 rpm. The lysates were then loaded over anti-glu-linked Protein-G Sepaharose beads (Covance Research Products, Richmond, Calif.) using 20 mL resin/50 g cell paste. The column was washed with 15 volumes of wash buffer (1 mM DTT, 0.2 mM EGTA, 1 mM Pefabloc, 0.5 μM aprotinin, 5 μM leupeptin, 2 μM pepstatin, 5 μM E64, 150 mM NaCl, 1% sodium cholate, pH 8). PI3Kγ was eluted with 6 column volumes of wash buffer that contain 100 μg/mL of a peptide that competes for binding of the glu tag. The column fractions with the eluted protein (determined by taking OD280 readings) were collected and dialyzed in 0.2 mM EGTA, 1 mM DTT, 1 mM Pefabloc, 5 μM leupeptin, 0.5% sodium cholate, 150 mM NaCl, and 50% glycerol, pH 8. The fractions were stored at -80° C. until further use. Spodtera frugiperda cells were coinfected with baculovirus expressing a glu-tagged G protein β1 and baculovirus expressing a G protein […], at a 1:1 ratio of glu-tagged G protein β1 baculovirus to G protein β2 baculovirus. Sf9 cells are grown in 10 L bioreactors and harvested 48-72 hours post infection. Samples of infected cells were tested for G protein β1/β2 expression by Western Blot analysis, as described below. Cell lysates were homogenized and loaded onto a column of glu-tagged beads as in Biological Example 1 and competed off the column with a glu peptide and processed as described in Biological Example 1. The inhibitory properties of the compounds in Table 1 were assayed in an in vitro PI3K assay. In a 96-well polypropylene plate, each well was spotted with 2 μL of 50 times the desired final concentration of compound in DMSO. Purified recombinant p101/p110γ protein (0.03 μg; 2.7 nM) and G protein β1/γ2 subunits (0.09 μg; 57.7 nM) for each reaction was combined in the assay buffer (30 mM HEPES, 100 mM NaCl, 1 mM EGTA, and 1 mM DTT). ATP and [γ-^32P-ATP] (0.09 μCi) were added to this mixture so that the final ATP concentration in the reaction was 20 μM. Lipid micelles were formed by sonicating phosphatidylinositol-4,5-diphosphate (PIP2), phosphatidylethanolamine (PE), and Na-cholate in the assay buffer for 10 minutes, adding MgCl2 and incubating on ice for 20 minutes, for final concentrations of 25 μM PIP2, 300 μM PE, 0.02% Na-cholate, and 10 mM MgCl2 in the reaction. The reactions were started by adding equal volumes lipid and enzyme mixture in a total volume of 50 μL, allowed to run for 20 minutes at room temperature, and stopped with 100 μL 75 mM H3PO4. The lipid product was transferred to a glass fiber filter plate and washed with 74 mM H3PO4 several times. The presence of radioactive lipid product (PIP3) was measured by adding Wallac Optiphase mix to each well and counting in a Wallac 1450 Trilux plate reader (PerkinElmer Life Sciences Inc., Boston, Mass. 02118). The IC50 for each compound tested is reported in μM in Table 1: […]

T1 sequence (P48736 whole entry, species assumed): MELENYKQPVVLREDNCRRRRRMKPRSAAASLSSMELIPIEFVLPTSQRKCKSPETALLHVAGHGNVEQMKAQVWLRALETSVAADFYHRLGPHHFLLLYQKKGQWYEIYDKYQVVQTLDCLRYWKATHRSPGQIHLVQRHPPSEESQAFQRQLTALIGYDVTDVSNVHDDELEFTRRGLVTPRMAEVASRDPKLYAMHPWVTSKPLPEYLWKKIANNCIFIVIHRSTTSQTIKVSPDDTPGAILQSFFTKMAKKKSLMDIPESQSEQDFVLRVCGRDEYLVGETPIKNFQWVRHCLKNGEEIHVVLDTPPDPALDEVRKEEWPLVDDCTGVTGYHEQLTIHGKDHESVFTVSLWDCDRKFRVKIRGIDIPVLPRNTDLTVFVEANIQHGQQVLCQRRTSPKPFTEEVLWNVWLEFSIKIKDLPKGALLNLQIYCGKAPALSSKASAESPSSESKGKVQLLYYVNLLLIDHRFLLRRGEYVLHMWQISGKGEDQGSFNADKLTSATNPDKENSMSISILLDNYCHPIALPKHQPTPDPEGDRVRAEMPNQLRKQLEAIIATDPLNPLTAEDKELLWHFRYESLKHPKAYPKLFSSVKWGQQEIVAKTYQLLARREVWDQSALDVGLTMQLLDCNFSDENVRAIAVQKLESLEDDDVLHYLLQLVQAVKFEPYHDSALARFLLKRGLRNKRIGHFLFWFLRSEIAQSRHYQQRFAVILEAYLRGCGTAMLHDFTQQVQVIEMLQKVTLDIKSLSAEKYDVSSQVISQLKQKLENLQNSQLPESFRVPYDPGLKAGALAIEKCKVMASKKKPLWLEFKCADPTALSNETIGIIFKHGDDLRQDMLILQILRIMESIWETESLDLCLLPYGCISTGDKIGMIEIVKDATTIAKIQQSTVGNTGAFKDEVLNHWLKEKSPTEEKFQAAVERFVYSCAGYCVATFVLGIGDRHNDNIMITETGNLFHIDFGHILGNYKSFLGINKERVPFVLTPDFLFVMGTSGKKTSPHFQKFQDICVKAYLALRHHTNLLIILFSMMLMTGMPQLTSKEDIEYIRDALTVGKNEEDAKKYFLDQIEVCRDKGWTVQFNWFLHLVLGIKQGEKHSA
T1 sequence (Q8WYR1 whole entry partner, species assumed): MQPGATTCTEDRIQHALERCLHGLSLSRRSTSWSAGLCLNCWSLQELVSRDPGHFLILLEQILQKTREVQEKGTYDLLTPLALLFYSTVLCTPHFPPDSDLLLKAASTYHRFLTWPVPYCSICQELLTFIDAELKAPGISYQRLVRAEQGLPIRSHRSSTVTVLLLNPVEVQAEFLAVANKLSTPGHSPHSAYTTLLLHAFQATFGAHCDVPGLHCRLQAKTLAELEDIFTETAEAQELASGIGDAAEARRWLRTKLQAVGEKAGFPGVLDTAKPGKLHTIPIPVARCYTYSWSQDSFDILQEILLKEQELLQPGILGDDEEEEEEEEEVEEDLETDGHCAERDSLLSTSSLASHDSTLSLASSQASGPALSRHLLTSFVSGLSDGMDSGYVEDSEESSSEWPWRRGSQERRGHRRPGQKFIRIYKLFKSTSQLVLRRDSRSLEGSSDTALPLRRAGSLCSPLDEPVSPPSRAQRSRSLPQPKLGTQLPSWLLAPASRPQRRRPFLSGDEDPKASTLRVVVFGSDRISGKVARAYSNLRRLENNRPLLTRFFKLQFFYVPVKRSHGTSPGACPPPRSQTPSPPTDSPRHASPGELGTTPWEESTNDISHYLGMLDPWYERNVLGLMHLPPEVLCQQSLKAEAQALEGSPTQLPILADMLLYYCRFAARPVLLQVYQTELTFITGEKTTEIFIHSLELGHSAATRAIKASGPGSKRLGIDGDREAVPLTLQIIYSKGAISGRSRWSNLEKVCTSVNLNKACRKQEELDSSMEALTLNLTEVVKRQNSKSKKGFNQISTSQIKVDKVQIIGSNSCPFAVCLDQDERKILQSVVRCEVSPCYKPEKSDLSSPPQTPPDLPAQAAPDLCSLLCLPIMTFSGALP

Molecule	IC50 [nM]
3-Cycloheptylmethoxy-5-methoxy-benzofuran-2-carboxylic acid (1H-tetrazol-5-yl)-amide [Example 29]	108
3-Cycloheptyloxy-5-methoxy-benzofuran-2-carboxylic acid (1H-tetrazol-5-yl)-amide [Example 26]	97
5-Methoxy-3-(1-methyl-cyclomethoxy)-benzofuran-2-carboxylic acid (1H-tetrazol-5-yl)-amide [Example 24]	220
5-Methoxy-3-(6-methyl-cyclohex-3-enylmethoxy)-benzofuran-2-carboxylic acid (1H-tetrazol-5-yl)-amide [Example 16]	185
COc1ccc2oc(C(=O)Nc3nnn[nH]3)c(OC3CCCCC3C)c2c1 (stereo not drawn) [Example 5, 5-Methoxy-3-(2-methyl-cyclohexyloxy)-benzofuran-2-carboxylic acid (1H-tetrazol-5-yl)-amide]	180
C=C(C)C1CCC(C)C(Oc2c(C(=O)Nc3nnn[nH]3)oc3ccc(OC)cc23)C1 (stereo not drawn) [Example 7, 3-(5-Isopropenyl-2-methyl-cyclohexyloxy)-5-methoxy-benzofuran-2-carboxylic acid (1H-tetrazol-5-yl)-amide]	700
COc1ccc2oc(C(=O)Nc3nnn[nH]3)c(OC3CCCC3C)c2c1 (stereo not drawn) [Example 8, 5-Methoxy-3-(2-methyl-cyclopentyloxy)-benzofuran-2-carboxylic acid (1H-tetrazol-5-yl)-amide]	305
COc1ccc2oc(C(=O)Nc3nnn[nH]3)c(OC3CCCC(C)C3)c2c1 (stereo not drawn) [Example 14, 5-Methoxy-3-(3-methyl-cyclohexyloxy)-benzofuran-2-carboxylic acid (1H-tetrazol-5-yl)-amide]	67
COc1ccc2oc(C(=O)Nc3nnn[nH]3)c(OC3CC(C)CC(C)C3)c2c1 (stereo not drawn) [Example 17, 3-(3,5-Dimethyl-cyclohexyloxy)-5-methoxy-benzofuran-2-carboxylic acid (1H-tetrazol-5-yl)-amide]	100
COc1ccc2oc(C(=O)Nc3nnn[nH]3)c(OC3CCCCC3C)c2c1 (stereo not drawn) [Example 18, 5-Methoxy-3-(2-methyl-cyclohexyloxy)-benzofuran-2-carboxylic acid (1H-tetrazol-5-yl)-amide]	130
O=C(Nc1nnn[nH]1)c1oc2ccc(Cl)cc2c1OC1CCC1 [Example 37, 5-Chloro-3-cyclobutoxy-benzofuran-2-carboxylic acid (1H-tetrazol-5-yl)-amide]	2020
CC1CCC(Oc2c(C(=O)Nc3nnn[nH]3)oc3ccc(Cl)cc23)CC1C (stereo not drawn) [Example 40, 5-Chloro-3-(3,4-dimethyl-cyclohexyloxy)-benzofuran-2-carboxylic acid (1H-tetrazol-5-yl)-amide]	1100

The next lines start with the values.

IC50 [nM]	Molecule
1460	5-Chloro-3(1-methyl-cyclopropoxymethoxy)-benzofuran-2-carboxylic acid (1H-tetrazol-5-yl)-amide [Example 34]
3100	O=C(Nc1nnn[nH]1)c1oc2ccc(Cl)cc2c1OCC1CCC1 [Example 35, 5-Chloro-3-cyclobutylmethoxy-benzofuran-2-carboxylic acid (1H-tetrazol-5-yl)-amide]
950	O=C(Nc1nnn[nH]1)c1oc2ccc(Cl)cc2c1OC1CCCCCC1 [Example 36, 5-Chloro-3-cycloheptyloxy-benzofuran-2-carboxylic acid (1H-tetrazol-5-yl)-amide]
1040	O=C(Nc1nnn[nH]1)c1oc2ccc(Cl)cc2c1OCC1CCCC1 [Example 38, 5-Chloro-3cyclopentylmethoxy-benzofuran-2-carboxylic acid (1H-tetrazol-5-yl)-amide]
2700	CC(Oc1c(C(=O)Nc2nnn[nH]2)oc2ccc(Cl)cc12)C1CCCC1 (stereo not drawn) [Example 39, 5-Chloro-3-(1-cyclopentyl-ethoxy)-benzofuran-2-carboxylic acid (1H-tetrazol-5-yl)-amide]
480	CC1CC(C)CC(Oc2c(C(=O)Nc3nnn[nH]3)oc3ccc(Cl)cc23)C1 (stereo not drawn) [Example 41, 5-Chloro-3-(3,5-dimethyl-cyclohexyloxy)-benzofuran-2-carboxylic acid (1H-tetrazol-5-yl)-amide]
645	O=C(Nc1nnn[nH]1)c1oc2ccc(Cl)cc2c1OC1CCCCC1 [Example 42, 5-Chloro-3-cyclohexyloxy-benzofuran-2-carboxylic acid (1H-tetrazol-5-yl)-amide]
9420	O=C(Nc1nnn[nH]1)c1oc2ccc(Cl)cc2c1OCC1CC1 [Example 44, 5-Chloro-3-cyclopropylmethoxy-benzofuran-2-carboxylic acid (1H-tetrazol-5-yl)-amide]

Test system: not given
Assay: not given
Settings: not given

melting point [°C]	Molecule
243 to 244	O=C(Nc1nnn[nH]1)c1oc2ccc(Cl)cc2c1OCC1CC1 [Example 44, 5-Chloro-3-cyclopropylmethoxy-benzofuran-2-carboxylic acid (1H-tetrazol-5-yl)-amide]
